Reference: patent publication US20060141078A1, “Composition comprising a rice protein hydrolysate and an agent for increasing glycosaminoglycan synthesis” (L'OREAL, priority 2004, published 2006)

Tested on: adipocytes
Test: Hydrolysis of adipocyte triglycerides: release of non-esterified fatty acids (NEFA) into the medium (lipolysis)
Format: cell-based
Settings: for % activity vs Control: untreated control = 100
Description: The adipocytes were isolated from an abdominal plasty and then incubated in the presence of collagenase, washed and taken up in test medium.
We then added the adipocyte suspension and the mixtures were incubated at 37° C. The NEFAs were assayed in the fractions of sub-adipocyte medium, after decantation. The assay was performed using an NEFA-C kit according to the manufacturer's instructions.
Two controls (a positive and a negative) of absence of interference of the product with the NEFA assay were performed.

SMILES | NEFA (Example 1, 1 μM) [µM] | % activity vs Control (Example 1, 1 μM) [%] | NEFA (Example 2, 1 μM) [µM] | % activity vs Control (Example 2, 1 μM) [%] | NEFA (Example 1, 1 mM) [µM] | % activity vs Control (Example 1, 1 mM) [%] | NEFA (Example 2, 1 mM) [µM] | % activity vs Control (Example 2, 1 mM) [%]
CC(C)NCC(O)c1ccc(O)c(O)c1 (centres unmarked) [Isoproterenol, isoproterenol] | 472.3 | 600 | 613.3 | 1849 |  |  |  | 
Cn1c(=O)c2[nH]cnc2n(C)c1=O [Theophylline, theophylline] |  |  |  |  | 496.3 | 630 | 626.3 | 1888
